Patent publication US5874235A, “Screening assays for cancer chemopreventative agents” (The Johns Hopkins University, priority 1997, dated 1999)
Where two headings read alike, the source gives them in different places.

Key:
HCT116 cells [1] = format: cell-based, human
Experimental: FIGS. 1A, 1B and 1C NSAID induce apoptosis in human colorectal cancer cells. In FIG. […] Cells were collected at the indicated times, fixed and stained with Hoechst 33258 (23). The cells were counted and those with fragmented nuclei were scored as apoptotic. In FIG. 1B, HCT116 and SW480 cells were treated with SUS or INDO for 60 hours, harvested and stained as described above. Cells treated with SUS or INDO show the hallmarks of apoptosis.
This death appeared to be apoptotic, as it was accompanied by nuclear condensation and fragmentation (FIG. 1B) and exposure of phosphatidylserine groups on the cell surface, two hallmarks of apoptosis (11, 12).

HCT116 cells [2] = assay: Arachidonic acid levels, release of 3H-AA into the media; format: cell-based, human; conditions: for fold induction at 50 µM: 50 μM SUS, read-out: arachidonic acid levels relative to control; for increase in arachidonic acid: apoptosis-inducing doses of SUS
Experimental: FIGS. 4A, 4B, 4C, 4D, 4E and 4F. The role of arachidonic acid in NSAID-mediated apoptosis. […] HCT116 and SW480 cells were treated with the indicated concentrations of SUS or INDO. Arachidonic acid (AA) levels were determined by measuring release of ^3 H-AA into the media as previously described (18). Data are indicated as the mean of three replicates with the error bars corresponding to the standard deviation. In addition, the nature of the released radiolabeled material was evaluated by thin layer chromatography as previously described (28). […] HCT116 and SW480 cells were incubated with ^3 H-choline chloride (0.5 mCi ml^-1, 80 Ci mmol^-1, New England Nuclear) for 48 hours. After labeling, cells were washed with HBSS (Gibco) and treated with SUS or INDO for the indicated times. Sphingomyelin measurements were performed using the bacterial sphingomyelinase method as previously described (18). Sphingomyelin levels at each time point are plotted as a percentage of that in untreated control cells. For each point, the mean of at least two independent experiments is presented with the error bars corresponding to the standard deviations. […] SW480 cells were treated with 200 μM arachidonic acid (AA), SUS (SUS) or behenic acid as a control fatty acid (FA) as indicated. […] SW480 cells were treated with suboptimal doses (100 μM) of arachidonic acid (AA), SUS (SUS), or both (AA+SUS) as indicated. After 48 hours of treatment, apoptosis and ceramide increases were assessed as described for FIGS. 1 and 3, respectively. Ceramide increases (left axis) were expressed as fold increases relative to untreated cells. Apoptosis (right axis) was expressed as percent apoptotic cells minus percent apoptotic cells in untreated cells (5.6%+/-2.4). Data are indicated as the mean of duplicates with the error bars corresponding to the standard deviation.
Arachidonic acid is known to stimulate neutral sphingomyelinase (18), which catalyzes the conversion of sphingomyelin to ceramide. We therefore considered the possibility that inhibition of COX activity might lead to increases in arachidonic acid, the substrate for COX. To test this hypothesis, we first determined whether SUS stimulated arachidonic acid accumulation. In both SW480 and HCT 116 cells, apoptosis-inducing doses of SUS increased arachidonic acid by 2 to 3 fold at 24 hours and by approximately 5 fold at 48 hours (FIGS. 4A and 4B). The arachidonic acid increase following SUS treatment was as great as that following treatment with mellitin, a known activator of phospholipase A2. Arachidonic acid levels in HCT116 cells increased 3.5 fold one hour after treatment with 1 μM mellitin. Likewise, arachidonic acid levels increased 2.9 fold in SW480 cells one hour after mellitin treatment. Arachidonic acid (AA) levels were determined by measuring release of ^3 H-AA into the media as previously described (18). The nature of released radiolabeled material was evaluated by thin layer chromatography analysis as previously described (28).

SW480 cells [3] = format: cell-based, human; conditions: SUS 100 μM
HCT116 cells [4] = assay: Phosphatidylserine exposure by merocyanine staining; format: cell-based, human; conditions: 125 μM SUS, 48 hours
Experimental: (§1) Phosphatidylserine exposure was assessed by merocyanine staining as previously described (31). Forty-eight hours after treatment with 125 μM SUS, 44% of HCT116 stained with merocyanine versus 4% in the vehicle-treated control cells. Likewise, 74% of SW480 cells stained with merocyanine 50 hours after treatment with 200 μM SUS versus 1.5% of the vehicle-treated control cells.

SW480 cells [5] = assay: as above; format: cell-based, human; conditions: 200 μM SUS, 50 hours
Experimental: as §1

[6] = system: immortalized human keratinocytes (HaCat); assay: Ceramide levels in immortalized keratinocytes; format: cell-based; conditions: 48 h, read-out: increase in ceramide levels
Experimental: Ceramide levels were measured using the Escherichia coli diacylglycerol (DAG) kinase assay as previously described (30) with the following modifications. After the initial lipid extraction, phases were broken by adding 2 ml chloroform and 2 ml 1M NaCl and lipids were washed with 1M NaCl prior to drying under nitrogen (32, 33). After solubilization, samples were sonicated for 15 seconds. The DAG reaction was performed for 30 minutes at 25° C. in a 100 μl reaction volume with 3.5 μg DAG kinase (Calbiochem) and […] γ^32 P-ATP (Dupont NEN, 6000 Ci/mmol). After extraction of the labeled lipids, the lower chloroform phase was washed with 1% HCl prior to drying under nitrogen. The solvent mixture for thin layer chromatography was chloroform:acetone:methanol:acetic acid:water (10:4:3:2:1). Samples were quantitated using a Phosphorimager (Molecular Dynamics).
This ability of SUS is not limited to colon cancer cells; primary fibroblasts and immortalized keratinocytes can increase ceramide levels and undergo apoptosis in response to SUS. […] Forty-eight hours after exposure to 200 μM SUS greater than 70% of the cells had undergone apoptosis and ceramide levels were 8.2 and 4.7 fold increased in HDF and HaCat cells, respectively. […]

For CSc1ccc(/C=C2/C(C)=C(CC(=O)O)c3cc(F)ccc32)cc1 [SUS, sulindac sulfide], which apoptosis (HCT116 cells [1]; 200 μM SUS, 16 hours) is on record?
Its apoptosis is “the majority of cells had not yet undergone apoptosis”.

And the cell death (HCT116 cells [1]; SUS 50 μM)?
The cell death was “induced neither”.

And the apoptosis (HCT116 cells [1]; SUS 125 μM, with or without 10 μM CHX, 48 hours)?
The apoptosis was “underwent apoptosis”.

What about the fold induction at 50 µM (HCT116 cells [2]; Homo sapiens, HCT-116, 8 hours) of the same molecule?
The fold induction at 50 µM was 0.9.

What about the fold induction at 50 µM (HCT116 cells [2]; Homo sapiens, HCT-116, 16 hours) of the same molecule?
The fold induction at 50 µM was 1.05.

What about the fold induction at 50 µM (HCT116 cells [2]; Homo sapiens, HCT-116, 24 hours) of the same molecule?
The fold induction at 50 µM was 1.14.

And the fold induction at 200 µM (HCT116 cells [2]; Homo sapiens, HCT-116, 200 μM SUS, 16 hours, read-out: increase in arachidonic acid)?
Its fold induction at 200 µM is 5.1.

What about the “increase in arachidonic acid” value (HCT116 cells [2]; 24 hours) of the same molecule?
The value was 2 to 3 fold.

What about the “increase in arachidonic acid” value (HCT116 cells [2]; 48 hours) of the same molecule?
The value was “approximately 5 fold”.

And the cell death (SW480 cells [3])?
Its cell death is “not at 100 μM”.

What about the “cells stained with merocyanine” value (HCT116 cells [4]) of the same molecule?
Its value is 44%.

What about the “cells stained with merocyanine” value (SW480 cells [5]) of the same molecule?
The value was 74%.

What about the fold induction at 200 µM [6] of the same molecule?
The fold induction at 200 µM was 4.7.
